# Measured values published in patent US4504580A, “Antibiotics produced by fermentation of a novel strain of Streptomyces hygroscopicus” (Bristol-Myers Company, priority 1983, dated 1985).
# Like-named read-outs stand apart in the source and are kept apart here.
# Tests used:
# Type in all cases: cell-based
# Proteus rettgeri A15167 = assay: MIC by serial two-fold agar dilution, P. rettgeri A15167; details: Providencia rettgeri, A15167
# Protocol: (§1) The minimum inhibitory concentrations (MIC) of Bu-2659A, B, C, D and E were determined for a variety of gram-positive and gram-negative bacteria by the serial two-fold agar dilution method using the Steer's multi-inoculating apparatus. The inoculum was standardized as a 10^4 dilution of an overnight culture of the test organisms in Heart Infusion Broth (Difco). […] Reference antibiotics utilized in these tests included commercially available neomycin as well as its components, neomycins B and C [as used herein, the term "neomycin" means the commercial product containing neomycins B and C at an approximate ratio of 7:3], paromomycin [the commercial product containing >90% of paromomycin I and <10% of paromomycin II] and ribostamycin.
# [1] = test system: Staphylococcus aureus 209P; assay: MIC by serial two-fold agar dilution, S. aureus 209P; details: Staphylococcus aureus, 209P
# Protocol: as §1
# Escherichia coli Juhl = assay: MIC by serial two-fold agar dilution, E. coli Juhl; details: Escherichia coli
# Protocol: as §1
# [2] = test system: Pseudomonas aeruginosa A20601; assay: MIC, aminoglycoside-resistant P. aeruginosa A20601; details: Pseudomonas aeruginosa, A20601; Table 9; inactivating enzymes AAC(3)-I, APH(3')-II; Mueller-Hinton agar; read-out: MIC
# Protocol: as §1
# Proteus morganii A9553 = assay: MIC by serial two-fold agar dilution, P. morganii A9553; details: Morganella morganii, A9553
# Protocol: as §1
# [3] = test system: Staphylococcus aureus A20239; assay: MIC, aminoglycoside-resistant S. aureus A20239; details: Staphylococcus aureus, A20239; Table 9; inactivating enzyme APH(3')-I,II; Mueller-Hinton agar; read-out: MIC
# Protocol: as §1
# [4] = test system: Enterobacter cloacae A20364; assay: MIC, aminoglycoside-resistant E. cloacae A20364; details: Enterobacter cloacae, A20364; Table 9; inactivating enzyme APH(3')-I; Mueller-Hinton agar; read-out: MIC
# Protocol: as §1
# [5] = test system: Bacillus subtilis PCI 219; assay: MIC by serial two-fold agar dilution, B. subtilis PCI 219; details: Bacillus subtilis, PCI219
# Protocol: as §1
# Escherichia coli JR88 = assay: MIC, aminoglycoside-resistant E. coli JR88; details: Escherichia coli, JR88
# Protocol: as §1
# [6] = test system: Pseudomonas aeruginosa A20896; assay: MIC, aminoglycoside-resistant P. aeruginosa A20896; details: Pseudomonas aeruginosa, A20896; Table 9; inactivating enzyme AAC(3)-II; Mueller-Hinton agar; read-out: MIC
# Protocol: as §1
# [7] = test system: Escherichia coli JR66/W677; assay: MIC, aminoglycoside-resistant E. coli JR66/W677; details: Escherichia coli, JR66/W677
# Protocol: as §1
# [8] = test system: Pseudomonas aeruginosa A9930; assay: MIC by serial two-fold agar dilution, P. aeruginosa A9930; details: Pseudomonas aeruginosa, A9930
# Protocol: as §1
# Proteus vulgaris A9436 = assay: MIC by serial two-fold agar dilution, P. vulgaris A9436; details: Proteus vulgaris, A9436
# Protocol: as §1
# [9] = test system: Staphylococcus aureus D136; assay: MIC by serial two-fold agar dilution, S. aureus D136; details: Staphylococcus aureus, D136
# Protocol: as §1
# [10] = test system: Micrococcus luteus PCI 1001; assay: MIC by serial two-fold agar dilution, M. luteus PCI 1001; details: Micrococcus luteus, PCI1001
# Protocol: as §1
# Micrococcus flavus D12 = assay: MIC by serial two-fold agar dilution, M. flavus D12; details: Micrococcus flavus, D12
# Protocol: as §1
# Proteus mirabilis A9906 = assay: MIC by serial two-fold agar dilution, P. mirabilis A9906; details: Proteus mirabilis, A9906
# Protocol: as §1
# Proteus mirabilis A9554 = assay: MIC by serial two-fold agar dilution, P. mirabilis A9554; details: Proteus mirabilis, A9554
# Protocol: as §1
# [11] = test system: Pseudomonas aeruginosa D15; assay: MIC by serial two-fold agar dilution, P. aeruginosa D15; details: Pseudomonas aeruginosa, D15
# Protocol: as §1
# [12] = test system: Bacillus brevis IFO 12334; assay: MIC, aminoglycoside-resistant B. brevis IFO 12334; details: Brevibacillus brevis, IFO12334; Table 9; inactivating enzyme ANT (4'); Mueller-Hinton agar; read-out: MIC
# Protocol: as §1
# Escherichia coli A20732 = assay: MIC, aminoglycoside-resistant E. coli A20732; details: Escherichia coli, A20732; Table 9; inactivating enzyme ANT(2"); Mueller-Hinton agar; read-out: MIC
# Protocol: as §1
# Escherichia coli ML 1630 = assay: MIC, aminoglycoside-resistant E. coli ML 1630; details: Escherichia coli, ML1630; Table 9; inactivating enzyme APH(3')-I; Mueller-Hinton agar; read-out: MIC
# Protocol: as §1
# [13] = test system: Escherichia coli NR79/W677; assay: MIC, aminoglycoside-resistant E. coli NR79/W677; details: Escherichia coli, NR79/W677
# Protocol: as §1
# [14] = test system: Klebsiella pneumoniae D11; assay: MIC by serial two-fold agar dilution, K. pneumoniae D11; details: Klebsiella pneumoniae, D11
# Protocol: as §1
# [15] = test system: Serratia marcescens A20019; assay: MIC by serial two-fold agar dilution, S. marcescens A20019; details: Serratia marcescens, A20019
# Protocol: as §1
# [16] = test system: Escherichia coli JR35/C600; assay: MIC, aminoglycoside-resistant E. coli JR35/C600; details: Escherichia coli, JR35/C600
# Protocol: as §1
# Escherichia coli NIHJ = assay: MIC by serial two-fold agar dilution, E. coli NIHJ; details: Escherichia coli
# Protocol: as §1
# [17] = test system: Staphylococcus aureus Smith; assay: MIC by serial two-fold agar dilution, S. aureus Smith; details: Staphylococcus aureus
# Protocol: as §1
# Escherichia coli A20107 = assay: MIC, aminoglycoside-resistant E. coli A20107; details: Escherichia coli, A20107; Table 9; inactivating enzyme APH(3')-II; Mueller-Hinton agar; read-out: MIC
# Protocol: as §1
# bacteria of Table 10 = assay: In vitro activity of Bu-2659 DP-I vs neamine, overall, Table 10
# Protocol: as §1
# The in vitro activity of Bu-2659 DP-I (1-deamino-1-hydroxyneamine) is shown in Table 10 along with that of neamine.
# [18] = Table 10, Mueller-Hinton agar, read-out: MIC
smiles,measurement,setting,value
"NC[C@H]1O[C@H](O[C@H]2[C@H](O[C@@H]3O[C@H](CO)[C@@H](O)[C@H]3O)[C@@H](O)[C@H](N)C[C@@H]2N)[C@H](N)[C@@H](O)[C@@H]1O [Ribostamycin, ribostamycin]",MIC,Proteus rettgeri A15167,0.8 µg/mL
same,MIC,[1],1.6 µg/mL
same,MIC,Escherichia coli Juhl,6.3 µg/mL
same,MIC,[2],> 100 µg/mL
same,MIC,Proteus morganii A9553,1.6 µg/mL
same,MIC,[3],> 100 µg/mL
same,MIC,[4],> 100 µg/mL
same,MIC,[5],0.4 µg/mL
same,MIC,Escherichia coli JR88,1.6 µg/mL
same,MIC,[6],> 100 µg/mL
same,MIC,[7],> 100 µg/mL
same,MIC,[8],100 µg/mL
same,MIC,Proteus vulgaris A9436,0.8 µg/mL
same,MIC,[9],3.1 µg/mL
same,MIC,[10],6.3 µg/mL
same,MIC,Micrococcus flavus D12,12.5 µg/mL
same,MIC,Proteus mirabilis A9906,1.6 µg/mL
same,MIC,Proteus mirabilis A9554,1.6 µg/mL
same,MIC,[11],> 100 µg/mL
same,MIC,[12],> 100 µg/mL
same,MIC,Escherichia coli A20732,1.6 µg/mL
same,MIC,Escherichia coli ML 1630,> 100 µg/mL
same,MIC,[13],> 100 µg/mL
same,MIC,[14],0.4 µg/mL
same,MIC,[15],25 µg/mL
same,MIC,[16],> 100 µg/mL
same,MIC,Escherichia coli NIHJ,3.1 µg/mL
same,MIC,[17],3.1 µg/mL
same,MIC,Escherichia coli A20107,> 100 µg/mL
"NC[C@H]1O[C@H](O[C@H]2[C@H](O)[C@@H](O)[C@H](O)C[C@@H]2N)[C@H](N)[C@@H](O)[C@@H]1O [Bu-2659 DP-I, 1-deamino-1-hydroxyneamine]",MIC,[1]; [18],200 µg/mL
same,MIC,[5]; [18],100 µg/mL
same,MIC,Escherichia coli JR88,200 µg/mL
same,MIC,[8]; [18],> 800 µg/mL
same,MIC,Proteus vulgaris A9436; [18],200 µg/mL
same,"in vitro activity compared with neamine, in words",bacteria of Table 10,much less active than neamine
same,MIC,Proteus mirabilis A9554; [18],800 µg/mL
same,MIC,[14]; [18],200 µg/mL
same,MIC,Escherichia coli NIHJ; [18],200 µg/mL
same,MIC,[17]; [18],200 µg/mL
